# Measured values taken from patent US20150307938A1, “METHOD TO IDENTIFY A NOVEL CLASS OF IMMUNOLOGIC ADJUVANTS” (Lancell, L.L.C., priority 2011, published 2015).
# System: skin
# Assay: Affymetrix microarray of skin, DBP-4 hr and analogs vs. untreated; gene selection by log-2 fold change, Wilcoxon, Kendall tau (Tables 8, 9)
# Assay type: in vivo, mouse
# Conditions: for Wilcoxon: DBP-4 hr vs. untreated, selected by p-value; for Kendall: selected by Kendall tau, expression vs. output
# [1] = gene 1500032L24Rik NM_026914_at
# [2] = gene 2210016L21Rik NM_028211_at
# [3] = gene 4931408A02Rik NM_027627_at
# [4] = gene 4933407C03Rik NM_028941_at
# [5] = gene 5730494N06Rik NM_027478_at
smiles,measurement,setting,value
"CCCCOC(=O)c1ccccc1C(=O)OCCCC [DBP, dibutylphthalate]",Wilcoxon,[1],No
same,Kendall,[1],Yes
same,Wilcoxon,[2],No
same,Kendall,[2],Yes
same,Wilcoxon,[3],No
same,Kendall,[3],Yes
same,Wilcoxon,[4],No
same,Kendall,[4],Yes
same,Wilcoxon,[5],No
same,Kendall,[5],Yes
same,Wilcoxon,gene Ankrd24 NM_027480_at,No
same,Kendall,gene Ankrd24 NM_027480_at,Yes
same,Wilcoxon,gene Cby1 NM_028634_at,No
same,Kendall,gene Cby1 NM_028634_at,Yes
same,Wilcoxon,gene Ccdc123 NM_028120_at,No
same,Kendall,gene Ccdc123 NM_028120_at,Yes
same,Wilcoxon,gene Cdc42ep1 NM_027219_at,No
same,Kendall,gene Cdc42ep1 NM_027219_at,Yes
same,Wilcoxon,gene Cdca4 NM_028023_at,No
same,Kendall,gene Cdca4 NM_028023_at,Yes
same,Wilcoxon,gene Cenpv NM_028448_at,No
same,Kendall,gene Cenpv NM_028448_at,Yes
same,Wilcoxon,gene Chst14 NM_028117_at,No
same,Kendall,gene Chst14 NM_028117_at,Yes
same,Wilcoxon,gene Cnot8 NM_026949_at,No
same,Kendall,gene Cnot8 NM_026949_at,Yes
same,Wilcoxon,gene Ebpl NM_026598_at,No
same,Kendall,gene Ebpl NM_026598_at,Yes
same,Wilcoxon,gene Ict1 NM_026729_at,No
same,Kendall,gene Ict1 NM_026729_at,Yes
same,Wilcoxon,gene Ift80 NM_026641_at,No
same,Kendall,gene Ift80 NM_026641_at,Yes
same,Wilcoxon,gene Lrrfip2 NM_027742_at,No
same,Kendall,gene Lrrfip2 NM_027742_at,Yes
same,Wilcoxon,gene Med23 NM_027347_at,No
same,Kendall,gene Med23 NM_027347_at,Yes
same,Wilcoxon,gene Mlh1 NM_026810_at,No
same,Kendall,gene Mlh1 NM_026810_at,Yes
same,Wilcoxon,gene Mterfd3 NM_028832_at,No
same,Kendall,gene Mterfd3 NM_028832_at,Yes
same,Wilcoxon,gene Rnf135 NM_028019_at,No
same,Kendall,gene Rnf135 NM_028019_at,Yes
same,Wilcoxon,gene Rnf157 NM_027258_at,No
same,Kendall,gene Rnf157 NM_027258_at,Yes
same,Wilcoxon,gene Rrp1b NM_028244_at,No
same,Kendall,gene Rrp1b NM_028244_at,Yes
same,Wilcoxon,gene Slc25a35 NM_028048_at,No
same,Kendall,gene Slc25a35 NM_028048_at,Yes
same,Wilcoxon,gene Tmem55a NM_028264_at,No
same,Kendall,gene Tmem55a NM_028264_at,Yes
same,Wilcoxon,gene Tmem80 NM_027797_at,No
same,Kendall,gene Tmem80 NM_027797_at,Yes
same,Wilcoxon,gene Tmtc4 NM_028651_at,No
same,Kendall,gene Tmtc4 NM_028651_at,Yes
same,Wilcoxon,gene Zfyve21 NM_026752_at,No
same,Kendall,gene Zfyve21 NM_026752_at,Yes
